Usually IC50 stands for the concentration that inhibits the measured activity by half.

Assay [1] addresses T1, wt human NUAK1, full length (Homo sapiens, UniProt O60285).
T1 construct: 8 nM wt human NUAK1, full length (ThermoFisher/USA); purchased ThermoFisher
T1 sequence (O60285 1-661): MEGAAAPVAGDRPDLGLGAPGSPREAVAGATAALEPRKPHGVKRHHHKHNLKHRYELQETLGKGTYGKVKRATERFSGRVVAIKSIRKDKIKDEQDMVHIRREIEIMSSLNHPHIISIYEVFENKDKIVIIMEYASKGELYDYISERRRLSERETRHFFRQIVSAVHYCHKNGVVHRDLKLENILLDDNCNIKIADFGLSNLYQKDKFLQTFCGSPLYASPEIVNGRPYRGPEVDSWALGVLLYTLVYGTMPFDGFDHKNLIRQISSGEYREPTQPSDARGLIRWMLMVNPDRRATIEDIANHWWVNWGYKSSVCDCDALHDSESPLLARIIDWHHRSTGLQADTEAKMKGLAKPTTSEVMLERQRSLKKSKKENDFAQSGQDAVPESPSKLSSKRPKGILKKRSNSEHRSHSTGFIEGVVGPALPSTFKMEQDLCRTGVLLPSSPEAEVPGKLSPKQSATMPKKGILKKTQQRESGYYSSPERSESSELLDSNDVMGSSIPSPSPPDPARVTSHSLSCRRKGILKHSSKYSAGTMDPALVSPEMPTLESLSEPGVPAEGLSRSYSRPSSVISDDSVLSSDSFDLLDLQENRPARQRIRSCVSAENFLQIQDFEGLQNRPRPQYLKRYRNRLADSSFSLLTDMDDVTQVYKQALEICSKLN
In words: TR-FRET LanthaScreen Eu Kinase Binding Assay, NUAK1. To be noted: read-out: IC50, Activity Toward NUAK1. As to the method: The basic protocol for TR-FRET LanthaScreen Eu Kinase Binding Assay inhibitor studies were performed as follows. LanthaScreen Kinase Binding Assays (ThermoFisher/USA) to evaluate inhibitors were performed by addition of 5 μL of test compound in corresponding DMSO dilutions/5 μl of kinase/antibody mixture, 5 μL of tracer into 384 well small volume plates. After incubation for 1 hour at room temperature, plates were read. Data analysis of emission ratios was according LanthaScreen Eu Kinase Binding Assay protocol.
Kinase and assay components were adjusted to final concentrations according to kit protocol. For LRRK2: 5 nM wt human LRRK2, catalytic site, or G2019S human LRRK2, catalytic site (ThermoFisher/USA), 2 nM Eu-Anti-GST Antibody, 10 nM Kinase Tracer 236 in 1× Kinase Buffer A. For NUAK1: 8 nM wt human NUAK1, full length (ThermoFisher/USA), 2 nM Eu-Anti-His Antibody, 5 nM Kinase Tracer 236 in 1× Kinase Buffer A.
Background: In TR-FRET formats the signal depends on donor and acceptor labels being close together.

Assay [2] has as its target T2, wt human TYK2, catalytic site (Homo sapiens, UniProt P29597).
T2 construct: wt human TYK2, catalytic site; purchased SignalChem
T2 sequence (P29597 897-1176 limits assumed): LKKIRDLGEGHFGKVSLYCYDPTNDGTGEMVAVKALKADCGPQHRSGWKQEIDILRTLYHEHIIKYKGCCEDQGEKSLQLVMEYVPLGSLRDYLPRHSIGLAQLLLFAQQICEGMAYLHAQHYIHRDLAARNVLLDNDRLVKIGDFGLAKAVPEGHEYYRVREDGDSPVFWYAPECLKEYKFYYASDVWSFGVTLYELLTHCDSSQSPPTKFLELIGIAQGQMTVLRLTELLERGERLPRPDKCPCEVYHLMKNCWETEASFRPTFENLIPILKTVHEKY
In words: HTRF KinEASE assay, TYK2. Format: biochemical. To be noted: 1 μM ATP; read-out: IC50, Activity Toward TYK2. In outline: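 Kinase reaction run at room temperature for at least 30 min: 2 nM TYK2 with 1 μM ATP, or 1 nM JAK2 with 100 μM ATP, each with 1 μM biotin-TK substrate. Phosphorylation detected by HTRF (60 min antibody/XL665) and evaluated from emission ratios.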

For assay [3], the target named is T3, G2019S human LRRK2, catalytic site (Homo sapiens, UniProt Q5S007, G2019S).
T3 construct: G2019S human LRRK2, catalytic site; purchased ThermoFisher
Nature of the assay: TR-FRET LanthaScreen Eu Kinase Binding Assay, LRRK2 G2019S. To be noted: LRRK2(G2019); one range stated for wt and G2019; read-out: IC50, Activity Toward LRRK2(G2019). In outline:
(§1)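 Kinase Buffer A holding, as final levels, 8 nM full-length NUAK1, 2 nM Eu-anti-His antibody and 5 nM Tracer 236, or 5 nM LRRK2 catalytic site (wt or G2019S), 2 nM Eu-anti-GST and 10 nM Tracer 236. Compound added, then 1 h at room temperature before TR-FRET ratio readout.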

Assay [4] has as its target T4, wt human LRRK2, catalytic site (Homo sapiens, UniProt Q5S007).
T4 construct: 5 nM wt human LRRK2, catalytic site; purchased ThermoFisher
In words: TR-FRET LanthaScreen Eu Kinase Binding Assay, LRRK2 wt. The settings on record: one range stated for wt and G2019, read-out: IC50, Activity Toward LRRK2(Wt). In outline:
as §1

Assay [5] deals with T5, wt human JAK1, catalytic site (Homo sapiens, UniProt P23458).
T5 construct: wt human JAK1, catalytic site; purchased ThermoFisher
Nature of the assay: HTRF KinEASE assay, JAK1. Format: biochemical. The settings on record: 2.5 μM ATP; read-out: IC50, Activity Toward JAK1. The essentials:
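Compounds in DMSO dilution were mixed with kinase, biotin-TK substrate and ATP and reacted for ≥30 min at room temperature. Detection reagents (antibody, streptavidin-XL665) were read 60 min later as HTRF, with emission ratios analysed per KinEASE protocol.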

T3 sequence (Q5S007 970-2527 G2019S limits assumed): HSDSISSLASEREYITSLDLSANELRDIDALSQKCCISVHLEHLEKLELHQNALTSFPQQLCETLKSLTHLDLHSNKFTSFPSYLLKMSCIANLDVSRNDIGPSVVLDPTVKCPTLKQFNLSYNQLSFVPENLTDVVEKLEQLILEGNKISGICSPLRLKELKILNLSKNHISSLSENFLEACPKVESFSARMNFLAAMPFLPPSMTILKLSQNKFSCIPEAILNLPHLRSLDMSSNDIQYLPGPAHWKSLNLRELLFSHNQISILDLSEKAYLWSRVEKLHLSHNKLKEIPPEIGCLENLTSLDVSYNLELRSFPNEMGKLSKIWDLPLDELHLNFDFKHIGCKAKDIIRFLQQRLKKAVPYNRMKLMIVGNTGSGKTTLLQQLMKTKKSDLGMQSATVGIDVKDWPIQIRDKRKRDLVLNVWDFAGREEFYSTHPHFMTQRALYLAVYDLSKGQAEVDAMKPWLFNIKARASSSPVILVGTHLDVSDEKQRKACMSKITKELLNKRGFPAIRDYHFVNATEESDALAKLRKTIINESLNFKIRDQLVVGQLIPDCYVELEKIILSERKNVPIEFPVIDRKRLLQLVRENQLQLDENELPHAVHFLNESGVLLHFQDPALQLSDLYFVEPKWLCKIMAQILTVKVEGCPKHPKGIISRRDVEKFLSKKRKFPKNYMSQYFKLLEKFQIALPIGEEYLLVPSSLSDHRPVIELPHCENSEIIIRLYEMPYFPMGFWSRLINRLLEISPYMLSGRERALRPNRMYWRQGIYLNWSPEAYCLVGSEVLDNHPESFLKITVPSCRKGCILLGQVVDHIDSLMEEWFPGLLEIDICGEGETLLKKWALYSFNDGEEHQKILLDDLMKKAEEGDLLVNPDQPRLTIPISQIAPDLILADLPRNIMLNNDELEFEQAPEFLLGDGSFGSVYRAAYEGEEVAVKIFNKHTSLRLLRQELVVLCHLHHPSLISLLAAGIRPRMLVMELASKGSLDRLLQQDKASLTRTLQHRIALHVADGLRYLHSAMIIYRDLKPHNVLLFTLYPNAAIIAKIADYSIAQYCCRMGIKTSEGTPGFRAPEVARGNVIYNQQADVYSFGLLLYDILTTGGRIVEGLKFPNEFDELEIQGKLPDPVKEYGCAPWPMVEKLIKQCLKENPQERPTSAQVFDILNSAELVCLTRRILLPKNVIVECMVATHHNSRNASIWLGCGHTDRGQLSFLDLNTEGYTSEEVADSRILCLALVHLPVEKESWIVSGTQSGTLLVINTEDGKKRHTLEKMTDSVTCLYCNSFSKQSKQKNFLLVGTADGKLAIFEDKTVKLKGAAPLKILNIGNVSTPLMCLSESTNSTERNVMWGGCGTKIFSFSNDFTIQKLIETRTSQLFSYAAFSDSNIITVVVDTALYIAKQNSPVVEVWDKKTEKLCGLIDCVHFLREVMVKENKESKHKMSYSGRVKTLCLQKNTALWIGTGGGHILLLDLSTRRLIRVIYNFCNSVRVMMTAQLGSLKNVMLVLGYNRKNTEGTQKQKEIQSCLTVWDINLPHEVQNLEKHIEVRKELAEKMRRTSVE
T5 sequence (P23458 875-1153 limits assumed): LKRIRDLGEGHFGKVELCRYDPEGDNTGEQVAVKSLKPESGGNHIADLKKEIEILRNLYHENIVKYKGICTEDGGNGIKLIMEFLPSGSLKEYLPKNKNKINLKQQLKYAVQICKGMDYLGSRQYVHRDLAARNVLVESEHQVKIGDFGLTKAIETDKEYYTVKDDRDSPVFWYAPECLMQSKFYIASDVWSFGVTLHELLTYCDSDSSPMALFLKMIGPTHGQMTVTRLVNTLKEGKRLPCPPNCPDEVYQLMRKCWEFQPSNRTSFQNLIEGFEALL
T4 sequence (Q5S007 970-2527 limits assumed): as the sequence (Q5S007 970-2527 G2019S limits assumed) above, with S1050G counted along it

Regarding `NC(=O)c1nn(-c2c(Cl)cccc2Cl)cc1Nc1ccc(C(=O)N2CCCCC2)cc1` [compound 82, 1-(2,6-dichlorophenyl)-4-((4-(piperidine-1-carbonyl)phenyl)amino)-1H-pyrazole-3-carboxamide], the 50% inhibitory concentration (IC50) in assay [1] fell in the range of 100 to 1000 nM; in assay [2], 10 to 100 nM; in assay [3], 100 to 1000 nM; in assay [4], 100 to 1000 nM; in assay [5], 10 to 100 nM.
As to `CC(C)n1ncnc1-c1ccc(Nc2cn(-c3c(F)cccc3F)nc2C(N)=O)cc1` [compound 309, 1-(2,6-difluorophenyl)-4-((4-(1-isopropyl-1H-1,2,4-triazol-5-yl)phenyl)amino)-1H-pyrazole-3-carboxamide], the IC50 was 100 to 1000 nM in assay [1]; 100 to 1000 nM in assay [2]; 10 to 100 nM in assay [3]; 10 to 100 nM in assay [4]; 100 to 1000 nM in assay [5].
For the compound `CN1CCC(Oc2ccc(Nc3cn(-c4c(F)cccc4Cl)nc3C(N)=O)cc2)CC1` [compound 295, 1-(2-chloro-6-fluorophenyl)-4-((4-((1-methylpiperidin-4-yl)oxy)phenyl)amino)-1H-pyrazole-3-carboxamide], the IC50 in assay [1] fell in the range of 10 to 100 nM; in assay [2], 10 to 100 nM; in assay [3], 100 to 1000 nM; in assay [4], 100 to 1000 nM; in assay [5], 10 to 100 nM.
For the compound `NC(=O)c1nn(-c2c(F)cccc2F)cc1Nc1ccc(C(=O)NCC(F)(F)F)cc1` [compound 14, 1-(2,6-difluorophenyl)-4-((4-((2,2,2-trifluoroethyl)carbamoyl)phenyl)amino)-1H-pyrazole-3-carboxamide], the IC50 was in the range of 10 to 100 nM in assay [1]; 10 to 100 nM in assay [2]; 100 to 1000 nM in assay [3]; 100 to 1000 nM in assay [4]; 100 to 1000 nM in assay [5].
As to `CN1CCC(Oc2ccc(Nc3cn(-c4c(F)cccc4F)nc3C(N)=O)cc2)CC1` [compound 288, 1-(2,6-difluorophenyl)-4-((4-((1-methylpiperidin-4-yl)oxy)phenyl)amino)-1H-pyrazole-3-carboxamide], the IC50 lay within 10 to 100 nM in assay [1]; 10 to 100 nM in assay [2]; 100 to 1000 nM in assay [3]; 100 to 1000 nM in assay [4]; 100 to 1000 nM in assay [5].
As to `NC(=O)c1nn(-c2c(Cl)cccc2Cl)cc1Nc1ccc(C(=O)N2CC(C(N)=O)C2)cc1` [compound 453, 4-[4-(3-Carbamoyl-azetidine-1-carbonyl)-phenylamino]-1-(2,6-dichloro-phenyl)-1H-pyrazole-3-carboxylic acid amide], the IC50 in assay [1] was 100 to 1000 nM; in assay [2], less than 10 nM; in assay [3], 100 to 1000 nM; in assay [4] it was 100 to 1000 nM; in assay [5] it was less than 10 nM.
Take `NC(=O)c1nn(-c2c(Cl)cccc2Cl)cc1Nc1ccc(-c2nccn2CC(F)F)cc1` [compound 230, 1-(2,6-dichlorophenyl)-4-((4-(1-(2,2-difluoroethyl)-1H-imidazol-2-yl)phenyl)amino)-1H-pyrazole-3-carboxamide]: the IC50 is 100 to 1000 nM in assay [1]; less than 10 nM in assay [2]; 100 to 1000 nM in assay [3]; 100 to 1000 nM in assay [4]; 10 to 100 nM in assay [5].
Turning to `CN(C)[C@@H]1CCN(C(=O)c2ccc(Nc3cn(-c4c(Cl)cccc4Cl)nc3C(N)=O)cc2)C1` [compound 313, (R)-1-(2,6-dichlorophenyl)-4-((4-(3-(dimethylamino)pyrrolidine-1-carbonyl)phenyl)amino)-1H-pyrazole-3-carboxamide], the concentration for half-maximal inhibition (IC50) was 100 to 1000 nM in assay [1]; 10 to 100 nM in assay [2]; 100 to 1000 nM in assay [3]; 100 to 1000 nM in assay [4]; 10 to 100 nM in assay [5].
In the case of `CC(C)(C)OC(=O)NC1CCN(C(=O)c2ccc(Nc3cn(-c4c(Cl)cccc4Cl)nc3C(N)=O)cc2)C1` (stereo not shown) [compound 323, tert-butyl_(1-(4-((3-carbamoyl-1-(2,6-dichlorophenyl)-1H-pyrazol-4-yl)amino)benzoyl)pyrrolidin-3-yl)carbamate], the IC50 fell in the range of 100 to 1000 nM in assay [1]; 10 to 100 nM in assay [2]; 100 to 1000 nM in assay [3]; 100 to 1000 nM in assay [4]; 100 to 1000 nM in assay [5].
In the case of `CC(=O)N1CC(n2cc(C(F)(F)F)nc2-c2ccc(Nc3cn(-c4c(Cl)cccc4Cl)nc3C(N)=O)cc2)C1` [compound 342, 4-((4-(1-(1-acetylazetidin-3-yl)-4-(trifluoromethyl)-1H-imidazol-2-yl)phenyl)amino)-1-(2,6-dichlorophenyl)-1H-pyrazole-3-carboxamide], the IC50 in assay [1] is 100 to 1000 nM; in assay [2] it was less than 10 nM; in assay [3] it was 100 to 1000 nM; in assay [4], 100 to 1000 nM; in assay [5] it was 100 to 1000 nM.
On to `CC(C)(C)NC(=O)c1ccc(Nc2cn(-c3c(F)cccc3Cl)nc2C(N)=O)cc1` [compound 27, 4-((4-(tert-butylcarbamoyl)phenyl)amino)-1-(2-chloro-6-fluorophenyl)-1H-pyrazole-3-carboxamide], for which the IC50 fell in the range of 100 to 1000 nM in assay [1]; 10 to 100 nM in assay [2]; 100 to 1000 nM in assay [3]; 100 to 1000 nM in assay [4]; 100 to 1000 nM in assay [5].
As to `Cc1ccnnc1-c1ccc(Nc2cn(-c3c(F)cccc3Cl)nc2C(N)=O)cc1` [compound 56, 1-(2-chloro-6-fluorophenyl)-4-((4-(4-methylpyridazin-3-yl)phenyl)amino)-1H-pyrazole-3-carboxamide], the half-inhibitory concentration (IC50) was in the range of 100 to 1000 nM in assay [1]; 10 to 100 nM in assay [2]; 10 to 100 nM in assay [3]; 10 to 100 nM in assay [4]; 100 to 1000 nM in assay [5].
Consider `N#Cc1cn(CCO)c(-c2ccc(Nc3cn(-c4c(Cl)cccc4Cl)nc3C(N)=O)cc2)n1` [compound 361, 4-((4-(4-cyano-1-(2-hydroxyethyl)-1H-imidazol-2-yl)phenyl)amino)-1-(2,6-dichlorophenyl)-1H-pyrazole-3-carboxamide], for which the IC50 is 100 to 1000 nM in assay [1]; less than 10 nM in assay [2]; 100 to 1000 nM in assay [3]; 100 to 1000 nM in assay [4]; 10 to 100 nM in assay [5].
For the compound `NC(=O)c1nn(-c2c(F)cccc2Cl)cc1Nc1ccc(-n2ncc3c2CCOC3)cc1` [compound 208, 1-(2-chloro-6-fluorophenyll)-4-((4-(6,7-dihydropyrano[4,3-c]pyrazol-1(4H)-yl)phenyl)amino)-1H-pyrazole-3-carboxamide], the IC50 was in the range of 100 to 1000 nM in assay [1]; 10 to 100 nM in assay [2]; 10 to 100 nM in assay [3]; 10 to 100 nM in assay [4]; 10 to 100 nM in assay [5].

The values above are taken from US20230373985A1 (Origenis Gmbh, priority 2020, published 2023).
